Residues, ends and D or L forms follow the SMILES beside them.
Tests used:
TNF-α, IL-6, and IL-8 = test: ELISA of cytokines and chemokine in infected skin keratinocyte cells; type: cell-based, human; details: keratinocytes infected with S. aureus, A. baumannii or P. aeruginosa; peptide at 2 times MIC
Method: To specifically determine the anti-inflammatory effect of the synthetic peptide of the present invention, infection with Acinetobacter baumannii, Pseudomonas aeruginosa, or Staphylococcus aureus and a treatment with myxinidin 2 and myxinidin 3 synthetic peptides were carried out, and interleukin-6 (IL-6) and interleukin-8 (IL-8), which are a cytokine and a chemokine, and tumor necrosis factor alpha (TNF-α) were analyzed by enzyme-linked immunosorbent assay.
Specifically, interleukin-6, interleukin-8, and tumor necrosis factor-α were analyzed by a human immune assay kit. Human skin keratinocyte cells were infected with Staphylococcus aureus, Acinetobacter baumannii, or Pseudomonas aeruginosa, which are the bacterial strain having tolerance to antibiotics, followed by a treatment with the peptide at a concentration that is 2 times higher than the minimum inhibitory concentration to have a reaction. After that, only the supernatant was collected and subjected to an enzyme-linked immunosorbent assay.

[1] = test system: Pseudomonas aeruginosa 4076; test: Anti-microbial disk diffusion susceptibility test with gelatin; type: cell-based; details: 0.1% gelatin
Text: FIGS. 4A to 4C show the results of determining the antimicrobial activity when the peptides of the present invention are admixed with gelatin used as a wound moisturizing agent. FIG. 4A: Determination of survival ratio of skin keratinocyte cells in accordance with a change in gelatin concentration; FIG. 4B: Measurement of minimum inhibitory concentration (MIC, μM) of the peptides for Staphylococcus aureus (S. aureus 3018), Acinetobacter baumannii (A. baumannii 719705), and Pseudomonas aeruginosa (P. aeruginosa 4076), in which the result is shown for different gelatin concentrations; FIG. 4C: Result of the anti-microbial disk diffusion susceptibility test carried out for Staphylococcus aureus (S. aureus 3018), Acinetobacter baumannii (A. baumannii 719705), and Pseudomonas aeruginosa (P. aeruginosa 4076), in which the result is shown for different peptide concentrations and also for the presence or absence of gelatin co-blending.
To specifically determine the antimicrobial activity at the time of mixing the synthetic peptide of the present invention with gelatin, myxinidin 2 and myxinidin 3 synthetic peptides were admixed with 0.1% gelatin. Furthermore, to determine the antimicrobial activity, a minimum inhibitory concentration measurement and an anti-microbial disk diffusion susceptibility test as an agar diffusion method were carried out for Acinetobacter baumannii, Pseudomonas aeruginosa, and Staphylococcus aureus.
Specifically, cultured Acinetobacter baumannii, Pseudomonas aeruginosa, and Staphylococcus aureus were diluted to a concentration of 2×10^5 cells/ml, admixed with a solution in which 0.1% gelatin is mixed with 1% agarose, and cultured. To see the antimicrobial activity, the peptide was applied on a 6 mm round disk, in which the peptide was applied at various different concentrations, and the diffusion level was measured.

[2] = test system: skin wound of mouse infected with bacteria having tolerance to antibiotics; test: Healing of infected skin wound of mouse; type: in vivo, BALB/c female mouse; details: 5 mm biopsy punch wound, peptide at 2 times MIC, observed for 2 weeks
Text: Healing process of skin wound of a mouse induced by the synthetic peptide of the present invention, in which the mouse has been infected with Acinetobacter baumannii, Pseudomonas aeruginosa, or Staphylococcus aureus as the bacterial strain having tolerance to antibiotics, was observed during different time periods. The animal tissue was stained by hematoxylin and eosin (H & E) staining to examine the skin tissue having inflammation.
Specifically, a wound was created in a 6 week to 7 week old BALB/c female mouse using 5 mm biopsy punch. Then, the mouse was infected with Staphylococcus aureus, Acinetobacter baumannii, or Pseudomonas aeruginosa, which are the bacterial strain having tolerance to antibiotics, followed by administration of the peptide at a concentration that is 2 times higher than the minimum inhibitory concentration.

[3] = test system: membrane of Escherichia coli; test: Confocal microscopy analysis with PI (Propidium iodide); type: cell-based; details: reaction for 10 minutes
Method: (§1) Specifically, myxinidin 2 or myxinidin 3, which have been synthesized in the above Example 1, was treated with PI (Propidium Iodide) solution and Escherichia coli or Staphylococcus aureus followed by reaction for 10 minutes. After the reaction, only pure Escherichia coli were collected by centrifuge (4,000 rpm) followed by removal of supernatant. Then, by adding 50 μl of physiological saline (PBS), cell aggregate was removed. By using LSM510 confocal microscope, the working mechanism of the peptide on Escherichia coli and Staphylococcus aureus membrane was determined.

[4] = test system: membrane of Staphylococcus aureus; test: as above; type: cell-based; details: reaction for 10 minutes
Method: as §1

| Structure (SMILES) | Expression of cytokine and chemokine (IL-6, TNF-α, IL-8; ELISA) (TNF-α, IL-6, and IL-8) | Antimicrobial activity with gelatin (disk diffusion) [1] | Wound healing of infected mouse skin wound [2] | Activity on membrane (PI, confocal microscopy) [3] | Activity on membrane (PI, confocal microscopy) [4] |
| --- | --- | --- | --- | --- | --- |
| CC[C@H](C)[C@H](NC(=O)[C@H](Cc1c[nH]c2ccccc12)NC(=O)[C@H](CCCCN)NC(=O)[C@@H](NC(=O)[C@@H](N)CCCCN)[C@@H](C)CC)C(=O)N[C@@H](CC(C)C)C(=O)N[C@@H](CCCCN)C(=O)N[C@@H](Cc1ccc(O)cc1)C(=O)N[C@@H](Cc1c[nH]c2ccccc12)C(=O)N[C@@H](CCCCN)C(=O)N[C@@H](Cc1c[nH]c2ccccc12)C(=O)N[C@@H](CO)C(N)=O [Myxinidin 2, KIKWILKYWKWS-NH2] (H-KIKWILKYWKWS-NH2; N-terminus assumed) | has decreased | exhibited the antimicrobial activity | showed epidermalization and wound maturation | work on the membrane of Escherichia coli and Staphylococcus aureus to show PI | work on the membrane of Escherichia coli and Staphylococcus aureus to show PI |
| CC[C@H](C)[C@H](NC(=O)[C@H](Cc1c[nH]c2ccccc12)NC(=O)[C@H](CCCNC(=N)N)NC(=O)[C@@H](NC(=O)[C@@H](N)CCCNC(=N)N)[C@@H](C)CC)C(=O)N[C@@H](CC(C)C)C(=O)N[C@@H](CCCNC(=N)N)C(=O)N[C@@H](Cc1ccc(O)cc1)C(=O)N[C@@H](Cc1c[nH]c2ccccc12)C(=O)N[C@@H](CCCNC(=N)N)C(=O)N[C@@H](Cc1c[nH]c2ccccc12)C(=O)N[C@@H](CO)C(N)=O [Myxinidin 3, RIRWILRYWRWS-NH2] (H-RIRWILRYWRWS-NH2; N-terminus assumed) | has decreased | exhibited the antimicrobial activity | showed epidermalization and wound maturation | work on the membrane of Escherichia coli and Staphylococcus aureus to show PI | work on the membrane of Escherichia coli and Staphylococcus aureus to show PI |
